For one data set, the system named is DENV2 strain 16681. Description: In vitro antiviral assay: infectious DENV titer from infected MDMΦs by LLC-MK2 plaque assay. The settings on record: Dengue virus, DENV2, LLC-MK2, 48 h, MDMΦs infected with DENV2 MOI 1, drug 48 h, infectious titer by plaque assay; table values with 95% confidence interval in parentheses; read-out: EC50. The data set is classed as cell-based, dengue virus serotype 2.

A further data set has as its system MDMΦs. In words: Cytotoxicity, MTS cell proliferation assay. Format: cell-based, human. As for the experimental part:
Cytotoxicity of compounds was assessed by a cell proliferation assay for metabolic activity using a CellTiter 96 AQueous One Solution Cell Proliferation Assay (Promega) as per the manufacturer’s instructions. Briefly, 20 μl of a solution containing tetrazolium compound [3-(4,5-[…])-5-(3-carboxymethoxyphenyl)-2-(4-sulfophenyl)-2H-tetrazolium; MTS] and electron coupling reagent (phenazine ethosulfate) was added to cells covered or suspended in 100 μl of culture medium in a 96-well plate. Samples were incubated for approximately 4 hours (37°C, 5% CO2), and the absorbance at 490 nm (A490) was measured on a SpectraMax M5 microplate reader (Molecular Devices).

The target of data set [1] is T1, Mouse ER α-glucosidase II (Mus musculus, UniProt Q8BHN3).
T1 sequence (Q8BHN3 33-944): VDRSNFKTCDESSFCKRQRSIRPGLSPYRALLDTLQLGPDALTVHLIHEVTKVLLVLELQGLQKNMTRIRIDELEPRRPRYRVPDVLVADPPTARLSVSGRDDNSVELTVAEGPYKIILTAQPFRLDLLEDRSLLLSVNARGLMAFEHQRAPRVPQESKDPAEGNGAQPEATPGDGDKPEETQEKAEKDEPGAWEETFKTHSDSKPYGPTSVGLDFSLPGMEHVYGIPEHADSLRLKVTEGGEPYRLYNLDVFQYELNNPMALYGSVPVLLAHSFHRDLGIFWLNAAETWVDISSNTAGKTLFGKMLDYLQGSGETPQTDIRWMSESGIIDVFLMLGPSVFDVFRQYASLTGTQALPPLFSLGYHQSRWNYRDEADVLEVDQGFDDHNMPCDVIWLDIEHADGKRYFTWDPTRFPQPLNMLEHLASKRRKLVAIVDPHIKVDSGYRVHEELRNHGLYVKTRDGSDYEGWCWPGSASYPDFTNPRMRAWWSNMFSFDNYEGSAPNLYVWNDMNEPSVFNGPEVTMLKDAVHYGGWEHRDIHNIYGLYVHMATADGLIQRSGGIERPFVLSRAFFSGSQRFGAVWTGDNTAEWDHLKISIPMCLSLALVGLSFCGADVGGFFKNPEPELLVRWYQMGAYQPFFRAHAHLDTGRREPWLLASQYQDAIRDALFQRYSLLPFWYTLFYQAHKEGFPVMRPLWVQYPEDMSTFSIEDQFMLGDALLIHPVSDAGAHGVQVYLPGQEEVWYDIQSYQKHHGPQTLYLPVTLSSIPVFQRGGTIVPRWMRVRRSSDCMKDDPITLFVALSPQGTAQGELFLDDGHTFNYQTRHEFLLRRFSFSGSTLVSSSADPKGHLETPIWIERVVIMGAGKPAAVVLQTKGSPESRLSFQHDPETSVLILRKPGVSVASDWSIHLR
T1 sequence (O08795 15-521 partner): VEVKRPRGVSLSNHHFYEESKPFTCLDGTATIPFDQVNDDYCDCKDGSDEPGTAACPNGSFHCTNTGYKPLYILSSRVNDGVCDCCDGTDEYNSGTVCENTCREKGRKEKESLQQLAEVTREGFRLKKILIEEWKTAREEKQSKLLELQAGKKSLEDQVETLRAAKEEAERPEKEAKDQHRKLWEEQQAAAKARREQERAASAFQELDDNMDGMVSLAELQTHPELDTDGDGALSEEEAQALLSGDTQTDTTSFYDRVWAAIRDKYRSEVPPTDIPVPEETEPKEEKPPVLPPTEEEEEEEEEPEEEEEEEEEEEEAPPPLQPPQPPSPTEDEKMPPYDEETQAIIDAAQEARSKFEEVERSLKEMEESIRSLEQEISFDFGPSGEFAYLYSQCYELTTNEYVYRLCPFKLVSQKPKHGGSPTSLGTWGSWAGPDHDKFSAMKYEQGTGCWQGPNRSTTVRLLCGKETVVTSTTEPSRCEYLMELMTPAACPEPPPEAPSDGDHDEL
In words: In vitro enzyme inhibition, 4MUG hydrolysis. Format: biochemical. Conditions: concentration required to inhibit the enzyme to 50% activity. The protocol:
Recombinant Mus musculus ER alpha-glucosidase II inhibition was measured by incubating 20 nM enzyme with various concentrations of inhibitors in 100 mM potassium phosphate pH 7.2 at 37 °C for 5 minutes. Activity was measured by addition of 0.25 mM 4-methylumbelliferyl α-D-glucopyranoside (4MUG) (Sigma Aldrich) in black, non-binding surface-treated microplates (Corning). Fluorescence upon hydrolysis of the 4MUG was measured at λex of 355 nm and λem of 460 nm in a M5 multi-mode plate reader (Molecular Devices) at 37 °C, measuring fluorescence every minute for a total of 30 minutes. The initial velocity was fit in the linear range of measurements, and activity was normalized to the uninhibited control in order to plot activity against the inhibitor concentration. A sigmoidal, four-parameter function with a variable slope was used to determine the EC50 values in Prism (GraphPad).

The next data set deals with Rat intestinal maltase. In words: In vitro enzyme inhibition, glucose release from disaccharide. Format: biochemical. Conditions: concentration required to inhibit the enzyme to 50% activity. The protocol: Inhibition of glucosidases and glycosidases was detected as previously described. Briefly, assays were performed at the optimum pH of each enzyme, and appropriate disaccharide was provided as substrate for glucosidase release assays. Release of D-glucose was measured using a Glucose B-test (Wako Diagnostics). Appropriate p-nitrophenyl glycoside was added as substrate for additional glycosidase assays, and assays were stopped by adding 400 mM Na2CO3. Release of p-nitrophenol was measured spectrophotometrically at 400 nm.

The target of data set [2] is T2, Rat intestinal isomaltase (Rattus norvegicus, UniProt P23739).
T2 construct: from tissue; host or cells: rat intestine
T2 sequence (P23739 whole entry): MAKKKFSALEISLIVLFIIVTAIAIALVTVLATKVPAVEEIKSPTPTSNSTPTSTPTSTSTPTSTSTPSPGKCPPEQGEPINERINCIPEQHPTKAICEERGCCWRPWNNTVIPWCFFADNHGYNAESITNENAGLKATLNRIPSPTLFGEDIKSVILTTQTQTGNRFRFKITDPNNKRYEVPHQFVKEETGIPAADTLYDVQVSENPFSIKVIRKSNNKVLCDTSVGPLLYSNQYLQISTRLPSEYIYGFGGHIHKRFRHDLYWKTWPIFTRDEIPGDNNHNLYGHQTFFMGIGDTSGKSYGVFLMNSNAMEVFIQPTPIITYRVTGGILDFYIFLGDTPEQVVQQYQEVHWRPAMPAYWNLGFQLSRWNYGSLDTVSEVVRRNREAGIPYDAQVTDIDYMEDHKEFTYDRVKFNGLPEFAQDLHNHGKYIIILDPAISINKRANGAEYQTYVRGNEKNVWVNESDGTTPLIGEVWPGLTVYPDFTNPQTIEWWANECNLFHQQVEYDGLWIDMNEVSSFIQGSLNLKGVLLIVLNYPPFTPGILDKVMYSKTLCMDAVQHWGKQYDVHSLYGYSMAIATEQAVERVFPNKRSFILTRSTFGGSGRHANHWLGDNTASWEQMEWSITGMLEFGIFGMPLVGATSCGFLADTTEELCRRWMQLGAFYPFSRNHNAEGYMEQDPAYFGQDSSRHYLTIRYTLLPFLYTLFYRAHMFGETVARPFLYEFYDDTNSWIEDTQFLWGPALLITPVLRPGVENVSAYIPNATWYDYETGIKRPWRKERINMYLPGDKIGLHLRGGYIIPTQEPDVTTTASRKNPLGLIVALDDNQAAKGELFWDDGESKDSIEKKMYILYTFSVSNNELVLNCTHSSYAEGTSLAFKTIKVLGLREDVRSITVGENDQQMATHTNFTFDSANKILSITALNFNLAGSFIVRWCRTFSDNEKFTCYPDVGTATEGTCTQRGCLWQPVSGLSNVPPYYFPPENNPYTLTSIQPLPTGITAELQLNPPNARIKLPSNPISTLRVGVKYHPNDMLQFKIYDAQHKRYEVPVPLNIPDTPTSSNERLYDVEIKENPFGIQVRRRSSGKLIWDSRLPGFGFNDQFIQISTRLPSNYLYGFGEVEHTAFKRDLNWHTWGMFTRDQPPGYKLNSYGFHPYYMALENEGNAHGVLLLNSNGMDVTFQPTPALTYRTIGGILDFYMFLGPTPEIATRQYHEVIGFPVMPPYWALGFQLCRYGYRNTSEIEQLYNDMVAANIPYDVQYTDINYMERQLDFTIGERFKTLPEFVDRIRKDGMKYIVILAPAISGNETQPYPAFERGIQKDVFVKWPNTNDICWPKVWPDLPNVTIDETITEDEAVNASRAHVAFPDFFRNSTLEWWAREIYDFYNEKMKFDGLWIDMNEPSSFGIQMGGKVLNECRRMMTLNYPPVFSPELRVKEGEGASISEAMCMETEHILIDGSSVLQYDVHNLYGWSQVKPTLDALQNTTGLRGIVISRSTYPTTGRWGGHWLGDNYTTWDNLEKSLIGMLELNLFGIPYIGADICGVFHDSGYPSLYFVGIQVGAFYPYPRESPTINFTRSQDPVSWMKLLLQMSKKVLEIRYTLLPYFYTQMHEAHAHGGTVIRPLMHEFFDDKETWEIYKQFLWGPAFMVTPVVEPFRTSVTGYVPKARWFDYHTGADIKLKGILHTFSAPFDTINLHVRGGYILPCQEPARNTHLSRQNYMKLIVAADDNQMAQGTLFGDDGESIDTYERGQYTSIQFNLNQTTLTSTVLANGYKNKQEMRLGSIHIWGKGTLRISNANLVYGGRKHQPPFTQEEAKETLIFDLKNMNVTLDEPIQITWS
The data set is described as above. The data set is classed as biochemical.

In another data set the target is T3, Rat intestinal sucrase (Rattus norvegicus, UniProt P23739).
T3 construct: from tissue; host or cells: rat intestine
T3 sequence (P23739 whole entry): as above
The description is as above. Format: biochemical.

Data set [3] concerns the target Human lysosome α-glucosidase (Homo sapiens, UniProt P10253). In words: In vitro enzyme inhibition. The data set is classed as biochemical.
The next data set concerns the target T4, Glucosyltransferase HL60 (Homo sapiens, UniProt Q16739).
T4 construct: endogenous in cells; host or cells: HL60
T4 sequence (Q16739 1-394): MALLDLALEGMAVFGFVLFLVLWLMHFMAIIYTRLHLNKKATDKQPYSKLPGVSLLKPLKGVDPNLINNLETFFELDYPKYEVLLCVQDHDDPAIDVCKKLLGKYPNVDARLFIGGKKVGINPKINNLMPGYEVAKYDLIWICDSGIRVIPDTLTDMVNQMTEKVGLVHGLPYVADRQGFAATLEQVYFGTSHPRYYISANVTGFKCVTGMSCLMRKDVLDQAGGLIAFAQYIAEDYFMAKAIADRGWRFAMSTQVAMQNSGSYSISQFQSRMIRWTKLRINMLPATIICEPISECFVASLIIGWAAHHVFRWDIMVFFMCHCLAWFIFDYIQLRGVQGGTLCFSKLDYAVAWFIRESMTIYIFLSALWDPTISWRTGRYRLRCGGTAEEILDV
Description: In vitro enzyme inhibition. The data set is classed as biochemical.

The target in data set [4] is T5, Human lysosome α-galactosidase (Homo sapiens, UniProt P06280).
T5 sequence (P06280 32-429): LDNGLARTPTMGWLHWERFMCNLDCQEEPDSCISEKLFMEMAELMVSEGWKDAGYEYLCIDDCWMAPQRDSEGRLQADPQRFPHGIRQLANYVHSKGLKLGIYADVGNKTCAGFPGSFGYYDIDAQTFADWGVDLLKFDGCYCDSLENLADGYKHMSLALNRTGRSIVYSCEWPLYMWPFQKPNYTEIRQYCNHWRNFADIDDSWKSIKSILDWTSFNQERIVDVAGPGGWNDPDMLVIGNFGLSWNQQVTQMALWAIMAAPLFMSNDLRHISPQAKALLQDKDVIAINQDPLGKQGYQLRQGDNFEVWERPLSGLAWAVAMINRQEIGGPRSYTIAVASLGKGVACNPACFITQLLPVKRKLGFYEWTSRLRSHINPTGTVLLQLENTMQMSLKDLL
Description: In vitro enzyme inhibition. The data set is classed as biochemical.

For data set [5], the system named is monosialodihexosylganglioside (GM3) production. In words: Glycosphingolipid analysis: GM3 levels in MDMΦs by NP-HPLC. Format: cell-based, human. Conditions: 48 h, uninfected MDMΦ, normalized to untreated controls, mean ± SD, min. 3 donors.
The subject of another data set is DENV. Set-up: method as in PMID 23070155, PMID 23376501, PMID 22020302, PMID 22867971. The settings on record: post-exposure therapeutic administration; cited from earlier work.
Setting [6] is: concentration required to inhibit the enzyme to 50% activity, read-out: IC50.

Molecules are shown by their SMILES. pEC50, pIC50: −log10 of the molar value. Where two headings read alike, the source gives them in different places. Where only a bound is given, the exact number is not on record here.

For the compound `O[C@H]1[C@H](O)[C@@H](O)CN2CC[C@H](O)[C@H]12` [Castanospermine, castanospermine], the pEC50 in the data set on DENV2 strain 16681 was 4.44. Also, in the data set with MDMΦs, the “MNTD (maximum non-toxic dose tested)” value came out at 100 µM. Further, the pIC50 in data set [1] is 4.23; against Rat intestinal maltase, 6.43; in [2] it was 5.21; against Rat intestinal sucrase, 6.55; in data set [3], 5.70; on Glucosyltransferase HL60, less than 3.00. In [4], this compound gave a pIC50 of less than 3.00. Moreover, the “GM3 production (%)” value in [5] (100 μM (MNTD)) is recorded as 101.6 ± 6.7%.

For `OC[C@H]1NC[C@H](O)[C@@H](O)[C@H]1O` [DGJ, 1-deoxygalactonojirimycin], the pIC50 in [1] is less than 3.00; on Rat intestinal maltase, 3.44; in data set [2] (setting [6]), less than 3.00; on Rat intestinal sucrase (setting [6]), 3.47.

Regarding `OC[C@H]1NC[C@H](O)[C@@H](O)[C@@H]1O` [DNJ, 1-Deoxynojirimycin], in the data set with DENV2 strain 16681, the pEC50 was 3.51. The “MNTD (maximum non-toxic dose tested)” value in the data set with MDMΦs amounted to 10000 µM. Moreover, the figures for the pIC50 (in data set [1]; at Rat intestinal maltase; in data set [2] (setting [6])) were 4.94, 6.70 and 6.10, respectively.

As to `COCCCCCCCCCN1C[C@H](O)[C@@H](O)[C@H](O)[C@H]1CO` [MON-DNJ, N-(9-methoxynonyl)-DNJ], the “protection in lethal mouse models of DENV infection” value in the data set on DENV was “protection in lethal mouse models”.

With `CCCCCCCCCN1C[C@H](O)[C@@H](O)[C@H](O)[C@H]1CO` [NN-DNJ], in the data set with DENV2 strain 16681, the pEC50 is 5.90. Moreover, the “MNTD (maximum non-toxic dose tested)” value in the data set with MDMΦs is 31.6 µM. Besides, the pIC50 is 5.51 in [1]; 6.34 against Rat intestinal maltase; 5.14 in [2] (setting [6]); 6.13 at Rat intestinal sucrase (setting [6]); 6.85 in data set [3] (setting [6]); 3.12 in [4] (setting [6]). The “GM3 production (%)” value in [5] (31.6 μM (MNTD)) worked out at 5.9 ± 1.2%.

Source of the values: publication PMC4790851, “Iminosugars Inhibit Dengue Virus Production via Inhibition of ER Alpha-Glucosidases—Not Glycolipid Processing Enzymes” (PLoS Neglected Tropical Diseases, 2016).
